Results: PMC7915026, “Sulfaguanidine Hybrid with Some New Pyridine-2-One Derivatives: Design, Synthesis, and Antimicrobial Activity against Multidrug-Resistant Bacteria as Dual DNA Gyrase and DHFR Inhibitors” (Antibiotics, 2021)
Values after ≈ are worked out from the molar mass of the structure shown. Where two headings read alike, the source gives them in different places.

How the values were obtained:
[1] = molecular target: E. coli DHFR (dihydrofolate reductase) (Escherichia coli, UniProt P0ABQ4); assay: In vitro DHFR enzymatic assay; format: biochemical
B. subtilis ATCC 6633 = assay: MIC and MBC determination; format: cell-based; settings: B. subtilis
[2] = system: CD4+ and CD8+ T lymphocytes; assay: In vivo T lymphocyte subsets from peripheral blood, flow cytometry; settings: mice
S. aureus DNA gyrase = S. aureus DNA gyrase (Staphylococcus aureus, UniProt P0A0K8+P20831); assay: In vitro DNA gyrase supercoiling enzymatic assay; format: biochemical
C. albicans (ATCC 10231) [3] = assay: MIC and MFC determination; format: cell-based
MDRB strains = assay: MIC and MBC, ranges over the MDRB panel; format: cell-based; settings: four MDRB strains
Text: (§1) Norfloxacin was used as a positive control for the multidrug resistance study.
(§2) The experiment was repeating for three-times.

[4] = system: F. oxysporum (RCMB 008002); assay: MIC and MFC determination; format: cell-based
P. aeruginosa ATCC 27853 [5] = assay: MIC and MBC determination; format: cell-based; settings: Pseudomonas aeruginosa, ATCC27853, P. aeruginosa
[6] = system: Salmonella typhi (S. typhi ATCC 6539); assay: microbe, parasite or virus in culture; format: cell-based; settings: Salmonella enterica, Salmonella typhi
neutrophils = assay: In vitro intracellular killing, nitro blue tetrazolium (NBT) reduction assay; format: cell-based
Procedure: One of the broad methods used for determining immune disorders for patients in hospitals is the NBT test to measure their immune responses. The reduction in NBT dye provides information about the phagocytic and intracellular killing functions of neutrophils, which are important for microbiocidal activity. The most promising derivatives (2a, 2b, 2d, 3a, 8, and 11) were evaluated against in vitro intracellular killing activities using a nitro blue tetrazolium (NBT) reduction assay and the obtained results expressed in percentage (%): increasing the percentage led to an improvement in the killing ability of the neutrophils used as innate immunity.
In vitro intracellular killing activities for the most promising six derivatives 2a, 2b, 2d, 3a, 8, and 11 were performed according to reported methods.

E. faecalis ATCC 29212 [7] = assay: MIC and MBC determination; format: cell-based; settings: Enterococcus faecalis, ATCC29212, E. faecalis
[8] = system: F. oxysporum (RCMB 008002); assay: Inhibition zone, paper disk/agar diffusion; format: cell-based; settings: Na = no activity
In short: (§3)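 Values are inhibition zone diameters in millimetres. These were measured after applying the derivatives to agar plates by diffusion, and norfloxacin served as the reference drug.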

P. aeruginosa ATCC 27853 [9] = assay: Inhibition zone, paper disk/agar diffusion; format: cell-based; settings: P. aeruginosa; Na = no activity
In short: as §3

E. faecalis ATCC 29212 [10] = assay: Inhibition zone, paper disk/agar diffusion; format: cell-based; settings: E. faecalis; Na = no activity
In short: as §3

C. albicans (ATCC 10231) [11] = assay: Inhibition zone, paper disk/agar diffusion; format: cell-based; settings: Na = no activity
In short: as §3

S. typhi ATCC 6539 = assay: Inhibition zone, paper disk/agar diffusion; format: cell-based; settings: S. typhi; Na = no activity
In short: as §3

S. aureus ATCC 29213 [12] = assay: Inhibition zone, paper disk/agar diffusion; format: cell-based; settings: S. aureus; Na = no activity
In short: as §3

E. coli ATCC 25922 = assay: Inhibition zone, paper disk/agar diffusion; format: cell-based; settings: E. coli; Na = no activity
In short: as §3

spleen and thymus = assay: In vivo immunomodulation: immune organ weight and indexes; parameters: Spleen index: unit not given here; settings: mice
Text: Both the spleen and thymus have important antibacterial and fungal immune organ responses, and any change in weight, and indexes can reflect the level of immune regulation. Additionally, the relative spleen and thymus indexes are important indices for nonspecific immunity and potential immunomodulatory compounds that increase the spleen and thymus weight. This increase is due to immune cells’ stimulation in the spleen and thymus. […]

E. coli ATCC BAA-196 [13] = assay: Inhibition zone against multidrug-resistant bacteria; format: cell-based; settings: MDRB E. coli ATCC BAA-196
In short: as §3

S. aureus ATCC 33591 [14] = assay: as above; format: cell-based; settings: MDRB S. aureus ATCC 33591
In short: as §3

S. aureus ATCC 29213 [15] = assay: MIC and MBC determination; format: cell-based; settings: S. aureus
E. coli ATCC BAA-196 [16] = assay: MIC and MBC against multidrug-resistant strains; format: cell-based; settings: E. coli ATCC BAA-196
Text: as §1, §2

S. aureus ATCC 43300 = assay: MIC and MBC against multidrug-resistant strains; format: cell-based; settings: Staphylococcus aureus, ATCC43300, S. aureus ATCC 43300
Text: as §1, §2

[17] = system: P. aeruginosa ATCC BAA-2111; assay: MIC and MBC against multidrug-resistant strains; format: cell-based; settings: P. aeruginosa ATCC BAA-2111
Text: as §1, §2

S. aureus ATCC 33591 [18] = assay: MIC and MBC against multidrug-resistant strains; format: cell-based; settings: Staphylococcus aureus, ATCC33591, S. aureus ATCC 33591
Text: as §1, §2

Sequence of E. coli DHFR (dihydrofolate reductase) (P0ABQ4 whole entry): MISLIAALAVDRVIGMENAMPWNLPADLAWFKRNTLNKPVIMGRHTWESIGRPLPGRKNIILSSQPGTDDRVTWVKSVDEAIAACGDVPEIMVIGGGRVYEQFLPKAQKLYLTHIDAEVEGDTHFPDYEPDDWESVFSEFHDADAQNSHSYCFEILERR
Sequence of S. aureus DNA gyrase (P20831 whole entry): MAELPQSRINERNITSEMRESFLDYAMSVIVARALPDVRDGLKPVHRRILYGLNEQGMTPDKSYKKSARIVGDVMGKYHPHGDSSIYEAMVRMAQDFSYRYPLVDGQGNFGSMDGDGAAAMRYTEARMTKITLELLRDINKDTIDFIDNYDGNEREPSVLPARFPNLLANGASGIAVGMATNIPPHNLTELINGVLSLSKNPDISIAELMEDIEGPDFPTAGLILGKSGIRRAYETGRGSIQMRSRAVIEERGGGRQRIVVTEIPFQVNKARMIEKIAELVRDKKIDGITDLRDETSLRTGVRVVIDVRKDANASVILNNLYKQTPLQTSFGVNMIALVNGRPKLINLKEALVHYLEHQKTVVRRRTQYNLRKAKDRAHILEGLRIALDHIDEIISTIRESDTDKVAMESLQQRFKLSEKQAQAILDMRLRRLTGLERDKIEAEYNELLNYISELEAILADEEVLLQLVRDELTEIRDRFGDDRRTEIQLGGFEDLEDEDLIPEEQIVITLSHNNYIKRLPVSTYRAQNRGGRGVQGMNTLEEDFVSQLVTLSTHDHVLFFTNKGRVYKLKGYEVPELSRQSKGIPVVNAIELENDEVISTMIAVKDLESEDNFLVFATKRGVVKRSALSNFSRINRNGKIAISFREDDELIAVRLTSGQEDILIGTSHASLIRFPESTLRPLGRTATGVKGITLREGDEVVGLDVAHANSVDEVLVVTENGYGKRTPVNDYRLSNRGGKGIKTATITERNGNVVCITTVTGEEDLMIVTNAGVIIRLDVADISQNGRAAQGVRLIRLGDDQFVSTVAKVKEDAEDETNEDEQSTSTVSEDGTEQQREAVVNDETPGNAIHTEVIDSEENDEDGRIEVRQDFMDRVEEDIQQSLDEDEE
Sequence of S. aureus DNA gyrase (P0A0K8 whole entry): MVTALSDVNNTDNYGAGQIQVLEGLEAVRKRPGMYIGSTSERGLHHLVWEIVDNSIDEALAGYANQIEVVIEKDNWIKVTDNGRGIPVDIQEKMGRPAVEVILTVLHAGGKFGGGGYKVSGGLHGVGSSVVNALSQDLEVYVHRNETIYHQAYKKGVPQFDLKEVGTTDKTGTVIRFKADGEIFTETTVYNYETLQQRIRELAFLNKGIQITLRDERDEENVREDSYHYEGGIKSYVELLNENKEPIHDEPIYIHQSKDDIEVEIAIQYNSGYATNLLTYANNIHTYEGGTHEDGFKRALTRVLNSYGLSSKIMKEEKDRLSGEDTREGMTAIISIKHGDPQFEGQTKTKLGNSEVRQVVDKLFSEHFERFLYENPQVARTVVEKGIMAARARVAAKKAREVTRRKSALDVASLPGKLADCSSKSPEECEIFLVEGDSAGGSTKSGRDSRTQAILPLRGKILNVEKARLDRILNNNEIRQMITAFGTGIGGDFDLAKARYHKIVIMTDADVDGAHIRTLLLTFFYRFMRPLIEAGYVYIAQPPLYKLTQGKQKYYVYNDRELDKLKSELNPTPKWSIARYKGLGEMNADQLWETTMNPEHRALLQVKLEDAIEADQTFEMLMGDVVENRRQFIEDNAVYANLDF

For `COc1ccc(/C=C(\C#N)C(=O)Nc2ccc(S(=O)(=O)NC(=N)N)cc2)cc1O` [Compound 2d, N-(4-(N-Carbamimidoylsulfamoyl)phenyl)-2-cyano-3-(3-hydroxy-4-methoxyphenyl) acryl-amide], the IC50 [1] was 4.33 ± 0.18 µM, the “fold relative to trimethoprim” value ([1]; E. coli DHFR IC50) was 1.19 fold and the MBC (B. subtilis ATCC 6633) was 9.38 ± 0.96 µM (≈ 3.9 µg/mL). It also gave an MIC (B. subtilis ATCC 6633) of 4.69 ± 0.98 µM (≈ 1.95 µg/mL), an MBC (B. subtilis ATCC 6633; Bacillus subtilis, ATCC6633, read-out: MBC) of 9.38 µM (≈ 3.9 µg/mL) and an MIC (B. subtilis ATCC 6633; Bacillus subtilis, ATCC6633, read-out: MIC) of 4.69 µM (≈ 1.95 µg/mL). For the same compound, the “T cells CD4+” value [2] was 79.61 ± 0.3%, the “T cells CD8+” value [2] was 27.05 ± 0.5% and the IC50 (S. aureus DNA gyrase) was 18.2 ± 1.18 µM. The MFC (C. albicans (ATCC 10231) [3]) was 37.60 ± 0.38 µM (≈ 15.6 µg/mL), the MFC/MIC (C. albicans (ATCC 10231) [3]) was <2 and the MIC (C. albicans (ATCC 10231) [3]) was 18.80 ± 0.65 µM (≈ 7.81 µg/mL). It also gave an MFC (C. albicans (ATCC 10231) [3]; Candida albicans, ATCC10231, read-out: MFC) of 37.6 µM (≈ 15.6 µg/mL), an MIC (C. albicans (ATCC 10231) [3]; Candida albicans, ATCC10231, read-out: MIC) of 18.8 µM (≈ 7.81 µg/mL) and an MBC range (MDRB strains) of 9.38 to 18.77 µM. For the same compound, the MIC range (MDRB strains) was 4.69 to 9.38 µM, the MFC [4] was 66.84 ± 0.85 µM (≈ 27.8 µg/mL) and the MFC/MIC [4] was <2. For the same compound, the MIC [4] was 37.60 ± 0.25 µM (≈ 15.6 µg/mL), the MFC ([4]; Fusarium oxysporum, RCMB008002, read-out: MFC) was 66.8 µM (≈ 27.8 µg/mL) and the MIC ([4]; Fusarium oxysporum, RCMB008002, read-out: MIC) was 37.6 µM (≈ 15.6 µg/mL). The MBC (P. aeruginosa ATCC 27853 [5]; read-out: MBC) was 25.5 ± 0.65 µM (≈ 10.6 µg/mL), the MIC (P. aeruginosa ATCC 27853 [5]; read-out: MIC) was 13.4 ± 0.25 µM (≈ 5.57 µg/mL) and the MBC ([6]; read-out: MBC) was 30.1 ± 0.75 µM (≈ 12.5 µg/mL). The MIC ([6]; read-out: MIC) was 18.8 ± 0.85 µM (≈ 7.81 µg/mL), the “Intracellular Killing Activity” value (neutrophils) was 142.4 ± 0.98% and the MBC (E. faecalis ATCC 29212 [7]; read-out: MBC) was 15.9 ± 0.58 µM (≈ 6.63 µg/mL). For the same compound, the MIC (E. faecalis ATCC 29212 [7]; read-out: MIC) was 9.38 ± 0.24 µM (≈ 3.9 µg/mL), the “Mean Diameter of the Inhibition Zone” value [8] was 22 ± 0.11 mm and the “Mean Diameter of the Inhibition Zone” value (P. aeruginosa ATCC 27853 [9]) was 27 ± 0.73 mm. For the same compound, the “Mean Diameter of the Inhibition Zone” value (E. faecalis ATCC 29212 [10]) was 29 ± 0.17 mm, the “Mean Diameter of the Inhibition Zone” value (C. albicans (ATCC 10231) [11]) was 27 ± 0.50 mm and the “Mean Diameter of the Inhibition Zone” value (S. typhi ATCC 6539) was 29 ± 0.20 mm. The “Mean Diameter of the Inhibition Zone” value (S. aureus ATCC 29213 [12]) was 33 ± 0.53 mm, the “Mean Diameter of the Inhibition Zone” value (E. coli ATCC 25922) was 30 ± 0.29 mm and the Spleen index (spleen and thymus) was 0.018 ± 0.00. It also gave a Spleen weight (spleen and thymus) of 250 ± 0.03 mg, a Thymus index (spleen and thymus) of 0.532 ± 0.06 mg/g and a Thymus weight (spleen and thymus) of 15.56 ± 0.54 mg. The “Mean Diameter of Inhibition Zone” value (E. coli ATCC BAA-196 [13]) was 25 ± 0.86 mm, the “Mean Diameter of Inhibition Zone” value (S. aureus ATCC 33591 [14]) was 24 ± 0.32 mm and the MBC (S. aureus ATCC 29213 [15]) was 13.40 ± 0.54 µM (≈ 5.57 µg/mL). For the same compound, the MIC (S. aureus ATCC 29213 [15]) was 13.40 ± 0.98 µM (≈ 5.57 µg/mL), the MBC (S. aureus ATCC 29213 [15]; Staphylococcus aureus, ATCC29213, read-out: MBC) was 13.4 µM (≈ 5.57 µg/mL) and the MIC (S. aureus ATCC 29213 [15]; Staphylococcus aureus, ATCC29213, read-out: MIC) was 13.4 µM (≈ 5.57 µg/mL). The MBC (E. coli ATCC BAA-196 [16]) was 9.38 ± 0.54 µM (≈ 3.9 µg/mL), the MIC (E. coli ATCC BAA-196 [16]) was 4.69 ± 0.36 µM (≈ 1.95 µg/mL) and the MBC (E. coli ATCC BAA-196 [16]; Escherichia coli, ATCCBAA196, read-out: MBC) was 9.38 µM (≈ 3.9 µg/mL). For the same compound, the MIC (E. coli ATCC BAA-196 [16]; Escherichia coli, ATCCBAA196, read-out: MIC) was 4.69 µM (≈ 1.95 µg/mL), the MBC (S. aureus ATCC 43300; read-out: MBC) was 9.38 ± 0.41 µM (≈ 3.9 µg/mL) and the MIC (S. aureus ATCC 43300; read-out: MIC) was 4.69 ± 0.25 µM (≈ 1.95 µg/mL). For the same compound, the MBC [17] was 18.77 ± 0.61 µM (≈ 7.8 µg/mL), the MIC [17] was 9.38 ± 0.49 µM (≈ 3.9 µg/mL) and the MBC ([17]; Pseudomonas aeruginosa, ATCCBAA2111, read-out: MBC) was 18.8 µM (≈ 7.8 µg/mL). The MIC ([17]; Pseudomonas aeruginosa, ATCCBAA2111, read-out: MIC) was 9.38 µM (≈ 3.9 µg/mL), the MBC (S. aureus ATCC 33591 [18]; read-out: MBC) was 18.8 ± 0.25 µM (≈ 7.8 µg/mL) and the MIC (S. aureus ATCC 33591 [18]; read-out: MIC) was 9.38 ± 0.32 µM (≈ 3.9 µg/mL).
